Measured values reported in article PMC12796071, “Evaluation of [^18F]MNI-1054, a novel PET ligand for lysine-specific histone demethylase 1A (LSD1), in non-human primates” (EJNMMI Research, 2025).
“Also recorded” adds a separate entry of the source.

What was measured:
[1] = biological target: T1, LSD1 (Macaca mulatta, UniProt I2CUD2); assay: PET imaging of the testes (baseline and TAK-418 blocking); settings: baseline scan; M3
Description: TAK-418 (3 mg/kg) was administered as an intravenous bolus over 5-min, starting 120 min prior to [^18F]MNI-1054 administration.

[2] = Arterial plasma radiometabolite analysis (parent fraction) during PET; assay type: in vivo, rhesus monkeys (macaca mulatta); settings: for parent fraction in arterial plasma: across baseline and blocking studies
Description: (§1) All brain scans were collected over 3 h on a microPET Focus 220 PET scanner (Siemens), with injected doses in the range 167.61–185 MBq. A transmission scan with an external Germanium-68 source was performed prior to the emission scans to estimate attenuation correction coefficients. Discrete arterial blood samples (n = 18–21) were taken throughout the scans to measure the parent fraction, plasma free fraction as well as total plasma and whole-blood activity for tracer kinetic modeling. Detailed procedures are provided in the Supplement.
To generate arterial input functions, [^18F]MNI-1054 parent fraction measurements in plasma were first fitted to a sum of decaying exponentials using the Levenberg-Marquardt algorithm. The total arterial plasma activity concentration measurements were then multiplied by the resulting continuous parent fractions to yield the final input functions for kinetic modeling.
Arterial blood samples (1 mL or 3.5 mL) were drawn at 0.75, 1.5, 2.25, 3, 3.75, 4, 5, 6, 8, 10, 15, 20, 25, 30, 45, 60, 90, 120, 150, and 180 min post-injection to measure parent fraction, total plasma and whole blood activity. The larger samples were drawn for analysis of parent fraction. Aliquots of 200 µL of whole blood were counted in a gamma counter (Wallac 2480 Wizard^2® Automatic Gamma Counter, Perkin-Elmer, Waltham, Massachusetts) for 1 min (400-1400 keV window). All blood samples were centrifuged for 10 min at 3,000 g and the plasma separated. Aliquots of 200 µL of plasma were counted in the gamma counter for 1 min (400-1400 keV window).
The fraction of unchanged radiotracer in plasma was determined by HPLC at selected time points. […] Sample vials and pellets were counted in the gamma counter for 1 min to calculate the extraction percentage. Gamma chromatograms were analyzed by integration of all radioactive peaks. The percentage of parent compound was calculated by dividing the area under the peak representing parent compound by the sum of the area of all radioactive peaks.

[3] = biological target: T1, LSD1; assay: Brain PET imaging and kinetic analysis of [18F]MNI-1054 (irreversible 2TCM, Patlak); assay type: in vivo; set-up: from tissue; host or cells: brain of living rhesus monkeys (M1, M2), in vivo PET; settings: for Average Ki bias (SD) versus full 180-min scan: baseline studies; for Ki Baseline: cerebellum
Description: as §1
M1 and M2 each completed a scan at baseline to assess brain penetration and kinetics and to serve as reference for the blocking and displacement studies. A self-block study with cold 3 mg/kg MNI-1054, starting 5 min prior to [^18F]MNI-1054 administration, was conducted in M1 to assess regional differences in non-specific binding.
Blocking studies with the LSD1 inhibitor TAK-418 ([…]) were performed to measure the dose-occupancy relationship for this compound. For blocking studies, TAK-418 was administered intravenously 2 h prior to [^18F]MNI-1054. Prior to conducting these blocking studies, a displacement study with TAK-418 (3 mg/kg) was performed to confirm irreversible tracer binding, in which TAK-418 was administered 1.5 h post [^18F]MNI-1054 administration. For all studies involving TAK-418, the test article was administered intravenously over 5 min. Due to the irreversible binding of these compounds to LSD1, the time taken for the enzyme to re-populate was investigated by imaging one animal (M2) with [^18F]MNI-1054 at 24 and 48 h post TAK-418 treatment (0.3 mg/kg). Each animal also underwent a high-resolution T1-weighted structural brain MRI scan with a 3-D MPRAGE sequence on a separate day for anatomical reference.
Emission data were reconstructed with filtered back projection into a series of 45 temporal frames (6 × 30, 3 × 60, 2 × 120, 34 × 300 s). For each frame, reconstructed images had dimensions of 256 × 256 × 95, voxel size of 0.949 × 0.949 × 0.796 mm and units of kBq/mL. All standard corrections were applied including normalization, random, scatter, dead-time, and attenuation. Dynamic brain PET images were analyzed using an in-house processing pipeline incorporating functionalities from FSL [18] and AFNI [19] as well as custom developed Matlab scripts (Mathworks Inc., Natick, MA, USA). Key steps of the workflow included rigidly aligning the PET images to the same animal’s brain MRI scan and spatially normalizing the MRI volume to the INIA19 [20] and NMT2.0 [21, 22] rhesus MR templates. Volumes of interest (VOIs) masks defined in rhesus MR template spaces were then inverse warped and applied to the PET images in their native orientation to compute time-activity curves (TACs) for the following regions: occipital lobe, temporal lobe, frontal lobe, parietal lobe, olfactory cortex, amygdala, cingulate, hippocampus, thalamus, hypothalamus, cerebellar grey matter, pons, striatum, nucleus accumbens and cerebral white matter. Lobar VOI masks were restricted to grey matter only. All VOI masks were derived from the INIA19 atlas, with the exception of the pons mask which was obtained from the NMT2.0 atlas (Fig. S.2.). The average activity concentration (kBq/mL) within each VOI was determined and TACs representing the regional brain activity concentration over time were generated. Brain TACs and images were presented in SUV units [g/mL] by normalizing activity concentration data [kBq/mL] by the animal’s weight [kg] and injected activity [MBq].
Regional TACs were modeled with an irreversible 2-tissue compartmental model (‘2TCM’) (k4 = 0) with the arterial input function to determine the tracer binding parameters Ki [mL/cm^3/min] (where Ki= K1. k3/(k2 + k3)) and λ.k3 (where λ = K1/k2), a parameter independent of blood flow and proportional to LSD1 binding site density via k3. […]

[4] = irreversible 2TCM, across all scans and regions

Cc1cc([18F])ncc1C(=O)Nc1ccc([C@@H]2C[C@H]2NCC2CC2)cc1 [[^18F]MNI-1054]
testes uptake (SUV) [1]: ~ 2 | parent fraction in arterial plasma ([2]; 30 min post-injection): ~ 42% | parent fraction in arterial plasma ([2]; 180 min post-injection): ~ 14% | parent fraction and parent-in-plasma activity concentration levels, higher in self-block study ([2]; self-block study (3 mg/kg cold MNI-1054) versus other studies): about 20% | displacement of tracer (change in TACs) ([3]; 3.0 mg/kg TAK-418 given 90 min post tracer injection, M1): no observable change in the TACs; also recorded: did not displace | Average Ki bias (SD) versus full 180-min scan ([3]; 120-min scan duration): 8.3 +/- 6.1% | Average Ki bias (SD) versus full 180-min scan ([3]; 150-min scan duration): 3.2 +/- 2.8% | difference Ki,Patlak versus Ki,2TCMirrev, mean +/- SD ([3]; Patlak t* = 30 min, all studies and regions): −0.00494 +/- 0.00348 mL/cm^3/min | Regional Ki in displacement study compared with baseline ([3]; TAK-418 3 mg/kg 1.5 h post tracer, same animal): did not substantially vary | Ki Baseline ([3]; animal M1): 0.058 mL/cm^3/min | Ki Baseline ([3]; animal M2): 0.047 mL/cm^3/min | k2/k3, max [3, 4]: 194.4 | k2/k3, mean (SD) [3, 4]: 24.7 (28.6) | k2/k3, min [3, 4]: 6.1
